From the supplement of paper PMC10307832

How the values were obtained:
Test in all cases: relative viability (nuclei count vs DMSO), 5 days (fraction); higher = more cells survive
[1] = system: HOP-62
Method in brief: (§1)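 Values are medians from duplicate plates. Each reflects relative viability, defined as the nuclei count of treated wells over that of vehicle wells. Lung cancer cell lines in 1536-well plates were pin-tool dosed one day after seeding with one drug alone or with a fixed anchor-drug dose plus five library-drug doses (not always all listed) in √10 steps, then fixed, stained and imaged at 4× after 5 days.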

[2] = system: NCI-H2170
Method in brief: as §1

[3] = system: LXF-289
Method in brief: as §1

[4] = system: EKVX
Method in brief: as §1

[5] = system: NCI-H1563
Method in brief: as §1

[6] = system: NCI-H1666
Method in brief: as §1

[7] = system: NCI-H2405
Method in brief: as §1

[8] = system: UMC-11
Method in brief: as §1

[9] = system: BEN
Method in brief: as §1

[10] = system: HCC-827
Method in brief: as §1

[11] = system: NCI-H838
Method in brief: as §1

[12] = system: EPLC-272H
Method in brief: as §1

[13] = system: LU99A
Method in brief: as §1

[14] = system: ABC-1
Method in brief: as §1

[15] = system: NCI-H3122
Method in brief: as §1

[16] = system: NCI-H727
Method in brief: as §1

[17] = system: NCI-H23
Method in brief: as §1

[18] = system: SK-MES-1
Method in brief: as §1

[19] = system: NCI-H358
Method in brief: as §1

[20] = system: NCI-H1975
Method in brief: as §1

[21] = system: NCI-H520
Method in brief: as §1

[22] = system: NCI-H322M
Method in brief: as §1

COCC1(CO)C(=O)C2CCN1CC2 (centres undefined) [PRIMA-1MET] + CS(=O)(=O)CCNCc1ccc(-c2ccc3ncnc(Nc4ccc(OCc5cccc(F)c5)c(Cl)c4)c3c2)o1 [Lapatinib] (partner 2 µM)
relative viability ([1]; first compound 0.2 µM): 1.17
relative viability ([1]; first compound 0.6325 µM): 0.911
relative viability ([1]; first compound 2 µM): 0.887
relative viability ([1]; first compound 6.325 µM): 1.06
relative viability ([1]; first compound 20 µM): 0.853
relative viability ([2]; first compound 0.2 µM): 0.263
relative viability ([2]; first compound 0.6325 µM): 0.236
relative viability ([2]; first compound 2 µM): 0.237
relative viability ([2]; first compound 6.325 µM): 0.276
relative viability ([2]; first compound 20 µM): 0.273
relative viability ([3]; first compound 0.2 µM): 0.878
relative viability ([3]; first compound 0.6325 µM): 0.879
relative viability ([3]; first compound 2 µM): 0.979
relative viability ([3]; first compound 6.325 µM): 0.923
relative viability ([3]; first compound 20 µM): 0.836
relative viability ([4]; first compound 0.2 µM): 0.244
relative viability ([4]; first compound 0.6325 µM): 0.202
relative viability ([4]; first compound 2 µM): 0.174
relative viability ([4]; first compound 6.325 µM): 0.213
relative viability ([4]; first compound 20 µM): 0.201
relative viability ([5]; first compound 0.2 µM): 0.991
relative viability ([5]; first compound 0.6325 µM): 0.988
relative viability ([5]; first compound 2 µM): 0.606
relative viability ([5]; first compound 6.325 µM): 1.09
relative viability ([5]; first compound 20 µM): 0.455
relative viability ([6]; first compound 0.2 µM): 0.765
relative viability ([6]; first compound 0.6325 µM): 0.584
relative viability ([6]; first compound 2 µM): 0.596
relative viability ([6]; first compound 6.325 µM): 0.688
relative viability ([6]; first compound 20 µM): 0.275
relative viability ([7]; first compound 0.2 µM): 0.77
relative viability ([7]; first compound 0.6325 µM): 1.17
relative viability ([7]; first compound 6.325 µM): 0.85
relative viability ([7]; first compound 20 µM): 0.0796
relative viability ([8]; first compound 0.2 µM): 1.12
relative viability ([8]; first compound 0.6325 µM): 0.898
relative viability ([8]; first compound 2 µM): 0.755
relative viability ([8]; first compound 6.325 µM): 0.961
relative viability ([8]; first compound 20 µM): 0.991
relative viability ([9]; first compound 0.2 µM): 0.786
relative viability ([9]; first compound 0.6325 µM): 0.774
relative viability ([9]; first compound 6.325 µM): 0.82
relative viability ([9]; first compound 20 µM): 0.687
relative viability ([10]; first compound 0.2 µM): 0.22
relative viability ([10]; first compound 0.6325 µM): 0.164
relative viability ([10]; first compound 2 µM): 0.198
relative viability ([10]; first compound 6.325 µM): 0.184
relative viability ([10]; first compound 20 µM): 0.198
relative viability ([11]; first compound 0.2 µM): 1.23
relative viability ([11]; first compound 0.6325 µM): 0.913
relative viability ([11]; first compound 2 µM): 0.801
relative viability ([11]; first compound 6.325 µM): 1.06
relative viability ([11]; first compound 20 µM): 0.197
relative viability ([12]; first compound 0.2 µM): 0.871
relative viability ([12]; first compound 0.6325 µM): 0.767
relative viability ([12]; first compound 2 µM): 0.905
relative viability ([12]; first compound 6.325 µM): 0.971
relative viability ([12]; first compound 20 µM): 0.333
relative viability ([13]; first compound 0.2 µM): 1.1
relative viability ([13]; first compound 0.6325 µM): 0.905
relative viability ([13]; first compound 2 µM): 0.955
relative viability ([13]; first compound 6.325 µM): 0.91
relative viability ([13]; first compound 20 µM): 0.0802
relative viability ([14]; first compound 0.2 µM): 1.05
relative viability ([14]; first compound 0.6325 µM): 1.11
relative viability ([14]; first compound 2 µM): 0.956
relative viability ([14]; first compound 6.325 µM): 1.17
relative viability ([14]; first compound 20 µM): 1.03
relative viability ([15]; first compound 0.2 µM): 0.711
relative viability ([15]; first compound 0.6325 µM): 1.04
relative viability ([15]; first compound 2 µM): 1.03
relative viability ([15]; first compound 6.325 µM): 0.996
relative viability ([15]; first compound 20 µM): 0.954
relative viability ([16]; first compound 0.2 µM): 0.559
relative viability ([16]; first compound 0.6325 µM): 0.769
relative viability ([16]; first compound 2 µM): 0.503
relative viability ([16]; first compound 6.325 µM): 0.624
relative viability ([16]; first compound 20 µM): 0.113
relative viability ([17]; first compound 0.2 µM): 1.29
relative viability ([17]; first compound 0.6325 µM): 0.951
relative viability ([17]; first compound 2 µM): 0.897
relative viability ([17]; first compound 6.325 µM): 0.961
relative viability ([17]; first compound 20 µM): 0.117
relative viability ([18]; first compound 0.2 µM): 0.571
relative viability ([18]; first compound 0.6325 µM): 0.365
relative viability ([18]; first compound 2 µM): 0.448
relative viability ([18]; first compound 6.325 µM): 0.477
relative viability ([18]; first compound 20 µM): 0.516
relative viability ([19]; first compound 0.2 µM): 0.486
relative viability ([19]; first compound 0.6325 µM): 0.431
relative viability ([19]; first compound 6.325 µM): 0.471
relative viability ([19]; first compound 20 µM): 0.0399
relative viability ([20]; first compound 0.2 µM): 0.988
relative viability ([20]; first compound 0.6325 µM): 0.786
relative viability ([20]; first compound 2 µM): 0.774
relative viability ([20]; first compound 6.325 µM): 0.947
relative viability ([20]; first compound 20 µM): 0.816
relative viability ([21]; first compound 0.2 µM): 0.792
relative viability ([21]; first compound 0.6325 µM): 0.987
relative viability ([21]; first compound 6.325 µM): 0.828
relative viability ([21]; first compound 20 µM): 0.0834
relative viability ([22]; first compound 0.2 µM): 0.634
relative viability ([22]; first compound 6.325 µM): 0.629
relative viability ([22]; first compound 20 µM): 0.61
